According to patent US20110028447A1, “INDAZOLE DERIVATIVES” (Pfizer Inc., priority 2008, published 2011):
pEC50, pKi: −log10 of the molar value. Like-named read-outs stand apart in the source and are kept apart here.

Experiments:
human CB1 receptor [1] = target: T1, human CB1 receptor (Homo sapiens, UniProt P21554); experiment: [35S] GTPγS binding on membranes of CHO cells expressing the human CB1 receptor (agonism); assay type: biochemical; design: expressed in transfected cells; membrane preparation
T1 sequence (P21554 whole entry): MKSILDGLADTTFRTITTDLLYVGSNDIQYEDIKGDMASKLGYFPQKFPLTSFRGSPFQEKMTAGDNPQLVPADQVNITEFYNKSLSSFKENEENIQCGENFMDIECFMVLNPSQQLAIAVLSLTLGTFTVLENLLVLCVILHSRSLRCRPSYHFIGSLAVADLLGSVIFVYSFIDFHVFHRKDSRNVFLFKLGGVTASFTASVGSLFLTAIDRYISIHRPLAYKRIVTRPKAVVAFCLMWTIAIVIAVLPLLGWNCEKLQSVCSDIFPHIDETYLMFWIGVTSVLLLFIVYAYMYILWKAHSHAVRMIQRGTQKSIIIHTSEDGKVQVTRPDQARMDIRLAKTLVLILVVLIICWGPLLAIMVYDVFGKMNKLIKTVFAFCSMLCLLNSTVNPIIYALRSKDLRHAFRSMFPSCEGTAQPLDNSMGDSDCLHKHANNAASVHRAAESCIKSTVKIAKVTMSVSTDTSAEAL
Experimental: Membrane preparation: CHO cells expressing the human CB1 receptor were grown to 80% confluence in Ham's F-12 Nutrient Medium (Invitrogen) containing 10% fetal bovine serum (Invitrogen), 1% pen/strep (Invitogen), 1% Nonessential amino acids (Invitrogen) and 500 μg/ml G418 (Invitrogen). Cells were released from flasks using Cell Dissociation Buffer (Invitrogen). Cells were pelleted by centrifugation at 500×G for 5 minutes. Membranes were prepared by resuspending cells in ice cold Assay Buffer (25 mM Tris pH 7.4, 5 mM EDTA, 5 mM EGTA, Complete Protease Inhibitor (Roche)). Cells were lysed with 12 strokes of a dounce homogenizer. Unlysed cells were pelleted by centrifugation at 500×G for 5 minutes. Membranes were pelleted by centrifugation at 25,000×G for 30 minutes. Membranes were resuspended in TEE, dounced 12 strokes, and pelleted a second time at 25,000×G for 30 minutes. Membrane pellet was resuspended in 50 mM Tris pH 7.4, 100 mM NaCl, 3 mM MgCl2, 0.2 mM EGTA, Complete Protease Inhibitor (Roche). Protein concentration was determined using the Micro-BCA Protein Assay Kit (Pierce) using BSA as a standard. Membranes were frozen and stored at −80 degrees Celsius until use.
GTPγS Binding: 40 μl of test compound was incubated with 20 μl of [^35S] GTPγS (Perkin Elmer) (1250 Ci/millimole) and 140 μl of membrane homogenate (5 μg/well) in polypropylene 96-well plates (Corning). Final reaction conditions were 50 mM Tris pH 7.4, 100 mM NaCl, 3 mM MgCl2, 0.2 mM EGTA, 0.04% BSA. After incubation at 37 degrees Celsius for 45 minutes reactions were harvested by vacuum filtration through Unifilter GF/B-96 filters (Perkin Elmer) using a FilterMate Plate Harvester (Perkin Elmer). Filters were rinsed 4 times with ice cold 50 mM Tris pH 7.4, 3 mM MgCl2, 0.2 mM EGTA and dried at 50 degrees Celsius for at least 30 minutes. 40 μl of Microscint-20 (Perkin Elmer) was added per well, and plates were counted using a Top-Count Microplate Scintillation Counter (Perkin Elmer). Binding data were analyzed and EC50 values were calculated using Graph Pad Prism 4.0 Software.

human CB1 receptor [2] = target: T1, human CB1 receptor; experiment: Human CB1 receptor binding, [3H] CP-55,940 displacement on HEK cell membranes; design: expressed in transfected cells; host or cells: HEK cells, doxycycline-induced; membrane preparation
In short: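 Radioligand displacement: [3H] CP-55,940 at […] final, 1 μg membrane protein per well from HEK cells with tetracycline-inducible human CB1, 60 min at room temperature, pH 7.4 Tris/NaCl/MgCl2/EGTA/BSA buffer. 50 μM WIN-55,212-2 set nonspecific binding; bound label filtered, counted, and fitted for EC50 and Ki values.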

[3] = GTPγS EC50, human CB1, CHO cell membranes
[4] = human CB1, CHO cell membranes, read-out: GTPγS EC50

Structure (SMILES)	pEC50 (human CB1 receptor [1]; [3])	pKi (human CB1 receptor [2]; CB1 Ki)	pEC50 (human CB1 receptor [1]; [4])	pKi (human CB1 receptor [2]; read-out: CB1 Ki)
CC(C)(C)[C@H](NC(=O)c1nn(Cc2ccc(F)cc2)c2ccccc12)C(=O)N1CCC(C#N)CC1 [Example 335]	7.83	8.49		
CC(C)C(NC(=O)c1nn(Cc2cccc(F)c2)c2ccccc12)C(N)=O (stereo not drawn) [Example 20]	6.67	7.29		
Cc1nc(CNC(=O)C(NC(=O)c2nn(Cc3ccc(F)cc3)c3ccccc23)C(C)(C)C)no1 (stereo not drawn) [Example 131]	7.88	9.22		
CC(C)(C)[C@H](NC(=O)c1nn(Cc2ccc(C#N)cc2)c2cc(F)ccc12)C(=O)NC1CC1 [Example 299]	7.62	8.07		
CC(C)(C)[C@H](NC(=O)c1nn(Cc2ccccc2)c2ccc(-c3cccnc3)cc12)C(N)=O [Example 8, N-[(1S)-1-(Aminocarbonyl)-2,2-dimethylpropyl]-1-benzyl-5-pyridin-3-yl-1H-indazole-3-carboxamide]			6.68	6.93
CC(C)(C)[C@H](NC(=O)c1nn(Cc2ccc(F)cc2)c2ccccc12)C(=O)NCC(=O)NC1CC1 [Example 494]	8.93	9.47		
CC(C)(C)[C@H](NC(=O)c1nn(Cc2ccc(C#N)cc2F)c2c(F)cccc12)C(=O)NC1CC1 [Example 373]	7.94	7.84		
CC(C)(C)[C@H](NC(=O)c1nn(Cc2ccc(F)cc2)c2c(Cl)cc(Cl)cc12)C(N)=O [Example 226]	9.14	9.74		
CC(C)(C)[C@H](NC(=O)c1nn(Cc2ccccc2)c2ccccc12)C(=O)NCCNS(=O)(=O)c1ccc(C#N)cc1 [Example 263]			7.00	8.08
CC(C)(C)C(NC(=O)c1nn(Cc2ccc(F)cc2)c2ccccc12)C(=O)NCC(O)CO (stereo not drawn) [Example 77]	7.32	8.27		
CC(C)(C)C(NC(=O)c1nn(Cc2ccccc2C#N)c2ccccc12)C(N)=O (stereo not drawn) [Example 30]	7.10	8.04		
CC(C)(C)C(NC(=O)c1nn(Cc2ccc(F)cc2)c2ccc(F)cc12)C(=O)NCCCO (stereo not drawn) [Example 174]	8.74	8.96		
Cc1noc(CNC(=O)C(NC(=O)c2nn(Cc3ccc(C#N)cc3)c3ccccc23)C(C)(C)C)n1 (stereo not drawn) [Example 140]	6.19	7.41		
CC(C)(C)C(NC(=O)c1nn(Cc2ccc(C#N)cc2F)c2ccccc12)C(=O)NCCCO (stereo not drawn) [Example 93]	7.38	7.84		
CC(C)(C)[C@H](NC(=O)c1nn(Cc2ccc(C#N)cc2)c2ccccc12)C(=O)NCC1CNC(=O)O1 (stereo partly drawn) [Example 316]		6.61		
CC(C)(C)[C@H](NC(=O)c1nn(Cc2ccc(C#N)cc2)c2cc(F)ccc12)C(=O)NC[C@H]1C[C@@H]1CO [Example 487]		6.96		
CC(C)(C)[C@H](NC(=O)c1nn(Cc2ccc(F)cc2)c2ccc(Cl)cc12)C(=O)NC1CC1 [Example 436]		8.95		
CC(C)(C)[C@H](NC(=O)c1nn(Cc2ccc(F)cc2)c2ccccc12)C(=O)NC[C@H](O)CN1CCCC1 [Example 503]				6.49
Cc1cc(O)nc(NCCNC(=O)[C@@H](NC(=O)c2nn(Cc3ccc(F)cc3)c3ccccc23)C(C)(C)C)n1 [Example 481]				7.28
CC(C)(C)[C@H](NC(=O)c1nn(Cc2ccc(F)cc2)c2ccccc12)C(=O)NCc1nnc2n1CCC2 [Example 419]				6.96
COC(=O)[C@@H](O)CNC(=O)[C@@H](NC(=O)c1nn(Cc2ccc(C#N)cc2)c2ccccc12)C(C)(C)C [Example 237]		< 6.40		
CC(C)(C)[C@H](NC(=O)c1nn(Cc2ccc(C#N)cc2)c2cc(F)ccc12)C(=O)NC[C@H]1C[C@H]1CO [Example 491]		7.05		
COc1cc(C#N)ccc1Cn1nc(C(=O)N[C@H](C(=O)NCCS(C)(=O)=O)C(C)(C)C)c2ccccc21 [Example 392]		< 6.40		
CC(C)(C)[C@H](NC(=O)c1nn(Cc2ccc(C(F)(F)F)cc2)c2ccccc12)C(=O)NCCS(N)(=O)=O [Example 257]		6.65		
COc1cc(C#N)ccc1Cn1nc(C(=O)N[C@H](C(N)=O)C(C)(C)C)c2ccccc21 [Example 385]		6.78		
